One data set concerns the target pepsin (Sus scrofa, UniProt P00791). The experiment in a line: Pepsin-inhibitory activity (method of Murao and Satoi). Type of data set: biochemical. As to the method: viii. Pepsin-inhibitory activity: Pepsin-inhibitory activity of DA-pepsidine was determined using the method reported by S. Murao and S. Satoi in Agr. Biol. Chem. Japan 34 (8) 1265 - 7 (1970). […] While, that of pepsidine C is 0.86 μg.

The nature of another data set: Solubility in solvents. Format: physicochemical.

pepsin, sequence (P00791 60-385): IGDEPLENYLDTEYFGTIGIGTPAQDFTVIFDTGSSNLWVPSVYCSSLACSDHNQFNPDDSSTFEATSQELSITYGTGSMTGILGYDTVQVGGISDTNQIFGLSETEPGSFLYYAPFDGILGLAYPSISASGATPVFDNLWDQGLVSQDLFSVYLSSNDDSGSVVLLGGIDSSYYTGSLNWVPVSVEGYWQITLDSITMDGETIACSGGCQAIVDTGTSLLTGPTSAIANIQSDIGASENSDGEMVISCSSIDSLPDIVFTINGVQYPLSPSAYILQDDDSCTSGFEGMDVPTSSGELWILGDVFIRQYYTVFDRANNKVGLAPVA

In the case of `CC(C)CC(NC(=O)[C@H](C)NC(=O)CC(O)C(CC(C)C)NC(=O)[C@@H](NC(=O)[C@@H](N)C(C)C)C(C)C)C(O)CC(=O)O` (some centres unmarked) [DA-pepsidine, valyl-valyl-4-amino-3-hydroxy-6-methyl-heptanoyl alanyl-4-amino-3-hydroxy-6-methyl-heptanoic acid], the “amount which gives 50% inhibition against 100 μg of pepsin” value at pepsin worked out at 0.82 µg. The Solubility entry in the data set “Solubility in solvents” (in acetic acid and methanol) is reported as “Easily soluble”; in “Solubility in solvents” (in acetone and ethylether) it was “slightly soluble”; in “Solubility in solvents” (in ethanol, n-butanol and pyridine), “soluble”.
Regarding `CC(=O)N[C@H](C(=O)N[C@H](C(=O)NC(CC(C)C)C(O)CC(=O)N[C@@H](C)C(=O)NC(CC(C)C)C(O)CC(=O)O)C(C)C)C(C)C` (some centres unmarked) [pepsidine C, reference compound], the “amount which gives 50% inhibition against 100 μg of pepsin” value on pepsin stood at 0.86 µg.

These data come from patent US4050989A, “Process of preparing desacyl-pepsidine with bacillus pumilus” (Eisai Co., Ltd., priority 1974, dated 1977).
